{"source": "patent US9314419B2", "about": "“Oral care compositions with a reduced bitter taste perception” (The Procter & Gamble Company, priority 2014, dated 2016)", "origin": "cited, not measured here", "data": [{"settings": "concentration level where the cooling effect can be clearly recognized", "values": [{"smiles": "CC(C)[C@@H]1CC[C@@H](C)C[C@@H]1O", "note": "[d-neomenthol]", "cooling threshold": "about 25,000 ppb"}, {"smiles": "CC(C)[C@@H]1CC[C@@H](C)C[C@H]1O", "note": "[L-menthol]", "cooling threshold": "about 800 ppb"}, {"smiles": "CC(C)[C@@H]1CC[C@@H](C)C[C@@H]1O", "note": "[Example 1-neomenthol, 1-neomenthol]", "cooling threshold": "about 3,000 ppb"}]}]}
